Source: patent US6306853A, “1,4-Dihydropyridine derivatives” (Nikken Chemicals Co., Ltd., priority 1998, dated 2001)

Tests used:
[1] = tested on: VCR resistant murine leukemia (P388/VCR) cells; assay: In vivo overcoming of resistance in VCR resistant murine leukemia (P388/VCR) bearing mice, etoposide with compound 20 mg/kg; parameters: species or system CDF1 female mice; settings: VP-16 3 mg/kg + compound 20 mg/kg, i.v. once per day for 5 days; for Rate of prolongation of life T/C: vs control
Description: In Vivo Test of Action Suppressing Proliferation of Cancer Cells by Combined Administration of Anti-cancer Drug Etoposide
Effect of Overcoming Resistance to an Anti-cancer Drug for VCR Resistant Murine Leukemia Cell Bearing Mice
(§1) 1.2×10^5 VCR resistant murine leukemia (P388/VCR) cells were transplanted intravenously into groups of 5-6 CDF1 female mice, then the compound of the present invention (20 mg/kg) and Etoposide (VP-16) (3 mg/kg) were administered intravenously once per day for 5 days, after dissolving them in a physiological salt solution containing a small amount of hydrochloric acid. The observation was started from the next day. The number of survival days were found and the life prolonging rate (T/C) with respect to the controls was found. The effect in overcoming resistance to an anti-cancer drug (T/V) was found by the following formula.
(§2) Effect of overcoming resistance to the anti-cancer drug (T/V) %
(§3) =[(Rate of prolongation of life using VP-16 and the present compound (T/C))/(Rate of prolongation of life using VP-16 alone (T/C))]×100

[2] = tested on: VCR resistant murine leukemia (P388/VCR) cells; assay: In vivo overcoming of resistance in VCR resistant murine leukemia (P388/VCR) bearing mice, etoposide with compound 10 mg/kg; parameters: species or system CDF1 female mice; settings: VP-16 3 mg/kg + compound 10 mg/kg; for Effect of overcoming resistance T/V: vs VP-16 alone; for Rate of prolongation of life T/C: vs control
Description: as §1, §2, §3
In Vivo Test of Action Suppressing Proliferation of Cancer Cells by Combined Administration of Anti-Cancer Drug Etoposide
The Test Example 3 was repeated using 10 mg/kg administration of the present compound and the effects of overcoming resistance to the anti-cancer drug were determined from the average days of survival.

Row | Compound | Average days of survival [1] [days] | Rate of prolongation of life T/C [1] [%] | Average days of survival [2] [days] | Effect of overcoming resistance T/V [2] [%] | Rate of prolongation of life T/C [2] [%]
1 | CCOC(=O)C1=C(c2ccc(-n3c(C)nc4cnccc43)cc2)NC(C)=C(C(=O)OCC#Cc2cccnc2)C1C1CCCCC1 (centres unmarked) [Compound 4, 4-Cyclohexyl-6-methyl-2-[4-(2-methylimidazo[4,5-c]pyridin-1-yl)phenyl]-1,4-dihydropyridin-3,5-dicarboxylate 3-ethylester 5-[3-(3-pyridyl)-2-propynyl]ester] | 14.8 | 161 | – | – | –
2 | CCOC(=O)C1=C(c2ccc(-n3c(C)nc4cnccc43)cc2)NC(C)=C(C(=O)OCC#Cc2cccnc2)C1C(C)c1ccccc1 (stereo not drawn) [Compound 7, 6-Methyl-4-(α-methylbenzyl)-2-[4-(2-methylimidazo[4,5-c]pyridin-1-yl)phenyl]-1,4-dihydropyridin-3,5-dicarboxylate 3-ethylester 5-[3-(3-pyridyl)-2-propynyl]ester] | 13.4 | 146 | – | – | –
3 | CCOC(=O)C1=C(c2ccc(-n3c(C)nc4cnccc43)cc2)NC(C)=C(C(=O)OCC#Cc2cccnc2)C1/C=C/c1ccccc1 (centres unmarked) [Compound 10, 6-Methyl-2-[4-(2-methylimidazo[4,5-c]pyridin-1-yl)phenyl]-4-[(E)-2-phenylethenyl]-1,4-dihydropyridin-3,5-dicarboxylate 3-ethylester 5-[3-(3-pyridyl)-2-propynyl]ester] | 17.0 | 185 | – | – | –
4 | CCOC(=O)C1=C(c2ccc(-n3c(C)nc4cnccc43)cc2)NC(C)=C(C(=O)OCC#Cc2cccnc2)C1CCc1ccccc1Cl (centres unmarked) [Compound 11, 4-[2-(2-Chlorophenyl)ethyl]-6-methyl-2-[4-(2-methylimidazo[4,5-c]pyridin-1-yl)phenyl]-1,4-dihydropyridin-3 ,5-dicarboxylate 3-ethylester 5-[3-(3-pyridyl)-2-propynyl]ester] | 15.8 | 155 | – | – | –
5 | CCOC(=O)C1=C(c2ccc(-n3c(C)nc4cnccc43)cc2)NC(C)=C(C(=O)OCC#Cc2cccnc2)C1/C=C/c1ccccc1Cl (centres unmarked) [Compound 12, 4-[(E)-2-(2-chlorophenyl)ethenyl]-6-methyl-2-[4-(2-methylimidazo[4,5-c]pyridin-1-yl)phenyl]-1,4-dihydropyridin-3,5-dicarboxylate 3-ethylester 5-[3-(3pyridyl)-2-propynyl]ester] | 16.8 | 165 | – | – | –
6 | CCOC(=O)C1=C(c2ccc(-n3c(C)nc4cnccc43)cc2)NC(C)=C(C(=O)OCC#Cc2cccnc2)C1CCc1ccccc1OC (centres unmarked) [Compound 13, 4-[2-(2-methoxyphenyl)ethyl]-6-methyl-2-[4-(2-methylimidazo[4,5-c]pyridin-1-yl)phenyl]-1,4-dihydropyridin-3,5-dicarboxylate 3-ethylester 5-[3-(3-pyridyl)-2-propynyly]ester] | 15.7 | 154 | – | – | –
7 | CCOC(=O)C1=C(c2ccc(-n3c(C)nc4cnccc43)cc2)NC(C)=C(C(=O)OCC#Cc2cnc3ccccc3c2)C1CCc1ccccc1 (centres unmarked) [Compound 18, 6-Methyl-2-[4-(2-methylimidazo[4,5-c]pyridin-1-yl)phenyl]-4-(2-phenylethyl)-1,4-dihydropyridin-3,5-dicarboxylate 3-ethylester 5-[3-(3-quinolyl)-2-propynyl]ester] | 16.0 | 157 | – | – | –
8 | CCOC(=O)C1=C(c2ccc(-n3c(C)nc4cnccc43)cc2)NC(C)=C(C(=O)OCC#Cc2cnc3ccccc3c2)C1/C=C/c1ccccc1 (centres unmarked) [Compound 19, 6-Methyl-2-[4-(2-methylimidazo[4,5-c]pyridin-1-yl)phenyl]-4-[(E)-2-(2-phenyl)ethenyl]-1,4-dihydropyridin-3,5-dicarboxylate 3-ethylester 5-[(3-quonolyl)-2-propynyl]ester] | 16.0 | 157 | – | – | –
9 | CCOC(=O)C1=C(c2ccc(-n3c(C)nc4cnccc43)cc2)NC(C)=C(C(=O)OCC#Cc2cncc3ccccc23)C1/C=C/c1ccccc1 (centres unmarked) [Compound 20] | 14.7 | 144 | – | – | –
10 | CCOC(=O)C1=C(c2ccc(-n3c(C)nc4cnccc43)cc2)NC(C)=C(C(=O)OCCC#Cc2cccnc2)C1CCc1ccccc1 (centres unmarked) [Compound 47, 6-Methyl-2-[4-(2-methylimidazo[4,5-c]pyridin-1-yl)phenyl]-4-(2-phenylethyl)-1,4-dihydropyridin-3,5-dicarboxylate 3-ethylester 5-[4-(3-pyridyl)-3-butynyl]ester] | 15.2 | 148 | – | – | –
11 | CCOC(=O)C1=C(c2ccc(-n3c(C)nc4cnccc43)cc2)NC(C)=C(C(=O)OCC#Cc2cccnc2)C1CC(c1ccccc1)c1ccccc1 (centres unmarked) [Compound 60] | 16.3 | 158 | – | – | –
12 | CCOC(=O)C1=C(c2ccc(-n3c(C)nc4cnccc43)cc2)NC(C)=C(C(=O)OCC#Cc2cccnc2)C1CC1c2ccccc2C2C(c3ccccc31)C2(F)F (centres unmarked) [Compound 66, 4-(1,1-Difluoro-1,1a,6, 10b-tetrahydrodibenzoa,[a,e]cyclopropa[c]cyclohepten-6-ylmethyl)-6-methyl-2-[4-(2-methylimidazo[4,5-c]pyridin-1-yl)phenyl]-1,4-dihydropyridin-3,5-dicarboxylate 3-ethylester 5-[3-(3-pyridyl)-2-propynyl]ester] | 14.5 | 141 | – | – | –
13 | CCOC(=O)C1=C(c2ccc(-n3c(C)nc4cnccc43)cc2)NC(C)=C(C(=O)OCC#Cc2cccnc2)C1C=C1c2ccccc2C2C(c3ccccc31)C2(F)F (centres unmarked) [Compound 67, 4-(1,1-Difluoro-1,1a,6,10b-tetrahydrodibenzo[a,e]cyclopropa[c]cyclohepten-6-ylidenemethyl)-6-methyl-2-[4-(2-methylimidazo[4,5-c]pyridin-1-yl)phenyl]-1,4-dihydropyridin-3,5-dicarboxylate 3-ethylester 5-[3-(3-pyridyl)-2-propynyl]ester] | 14.3 | 139 | – | – | –
14 | CCOC(=O)C1=C(c2ccc(-n3c(C(C)C)nc4cnccc43)cc2)NC(C)=C(C(=O)OCC#Cc2cccnc2)C1CC(c1ccccc1)c1ccccc1 (centres unmarked) [Compound 71, 4-(2,2-Diphenylethyl)-2-[4-(2-isopropylimidazo[4,5-c]pyridin-1-yl)phenyl]-6-methyl-1,4-dihydropyridin-3,5-dicarboxylate 3-ethylester 5-[3-(3-pyridyl)-2-propynyl]ester] | – | – | 17.4 | 164 | 167
15 | CCOC(=O)C1=C(c2ccc(-n3c(C)nc4cnccc43)cc2)NC(C)=C(C(=O)OCC#Cc2cccnc2)C1CC(c1ccc(F)cc1)c1ccc(F)cc1 (centres unmarked) [Compound 78] | – | – | 14.2 | 134 | 137
